Experimental data as given in article PMC7072329, “Discovery of Kynurenines Containing Oligopeptides as Potent Opioid Receptor Agonists” (Biomolecules, 2020).
Read-outs that look alike come from different tables or passages of the source. Where a SMILES comes first, the peptide text is derived from it. [ ]: non-standard residue; d: D form. Kyn = Nc1ccccc1C(=O)C[C@H](N)C(=O)O

Tests used:
NMDA receptor [1] = assay: [3H]MK-801 competition binding, rat brain membrane; conditions: read-out: Ki + S.E.M., displacement of [3H]MK-801
μ, δ, κ-receptors = system: μ, δ, κ-receptors; parameters: method as in PMID 25478797; conditions: cited from earlier work
G-protein [2] = assay: functional [35S]GTPγS binding, guinea pig brain membrane homogenates; assay type: biochemical; conditions: ligand alone
Method: (§1) Rats and guinea pigs were decapitated, and their brains were quickly removed. The brains were used for membrane preparation following the procedure reported by Benyhe for binding and [^35S]GTPγS binding experiments, in agreement with the protocol of Zádor et al..
(§2) Homogenization of brains was performed in 30 volumes (v/w) of ice-cold 50 mM Tris-HCl pH 7.4 buffer with a Teflon-glass Braun homogenizer at 1500 rpm. The centrifuge was settled at 18,000 rpm for 20 min at 4 °C, the resulting supernatant discarded, and the pellet taken up in the original volume of Tris-HCl buffer. Incubation of homogenate at 37 °C for 30 min was performed in a shaking water-bath. Five volumes of 50 mM Tris-HCl pH 7.4 buffer were used to suspend the final pellet at −80 °C. For the [^35S]GTPγS binding experiments, the brains were homogenized with a Dounce in 5 volumes (v/w) of ice-cold TEM (Tris-HCl, EGTA, MgCl2) at −80 °C. The protein content of the membrane preparation was determined by the method of Bradford, BSA being used as a standard.
(§3) The functional [^35S]GTPγS binding experiments were performed as previously described. Briefly the membrane homogenates were incubated at 30 °C for 60 min in Tris-EGTA buffer (pH 7.4) composed of 50 mM Tris-HCl, 1 mM EGTA, 3 mM MgCl2, 100 mM NaCl, containing 20 MBq/0.05 cm^3 [^35S]GTPγS (0.05 nM) and increasing concentrations (10^−10 to 10^−5 M) of ligands. The experiments were performed in the presence of excess GDP (30 μM) in a final volume of 1 mL. Total binding was measured in the absence of test compounds, non-specific binding was determined in the presence of 10 μM unlabeled GTPγS. The reaction was terminated by rapid filtration under vacuum and washed three times with 5 mL ice-cold 50 mM Tris-HCl (pH 7.4) buffer through Whatman GF/B glass fibers. The radioactivity of the filters was detected in an UltimaGold^TM MV aqueous scintillation cocktail with a Packard Tricarb 2300TR liquid scintillation counter.
(§4) Experimental data are presented as means ± S.E.M. Sigmoid dose-response curves were fitted with GraphPad Prism 5.0 (GraphPad Prism Software Inc., San Diego, CA, USA). An unpaired t-test with two-tailed p value was performed to determine the significance level. In the competition binding assays, the ‘One site competition’ fitting was used to establish the equilibrium binding affinity (Ki value).
Figure S3. The effect of novel oligopeptides on G-protein activity in [35S]GTPγS binding assays in the absence or presence of the selective MOR antagonist cyprodime (Cyp) and the selective DOR antagonist naltrindole (NTI) in rat brain membrane homogenates (Figure A) and the selective KOR antagonist norbinaltorphine (nor-BNI) in guinea pig brain membrane homogenates (Figure B). […]

δ-opioid receptor = molecular target: T1, δ-opioid receptor (Rattus norvegicus, UniProt P33533); assay: biochemical; assay type: binding; conditions: DOR; rat brain membrane; from IC50 by Cheng–Prusoff; read-out: Ki + S.E.M., displacement of [3H]Ile5,6Delt II
T1 construct: aliquots of frozen rat and guinea pig brain membrane homogenates were thawed and suspended in 50 mM Tris-HCl buffer; from tissue; host or cells: Wistar rat brain membrane homogenate

G-protein [3] = assay: functional [35S]GTPγS binding, rat brain membrane homogenates; assay type: biochemical; conditions: for Potency Log EC50 ± S.E.M. / Maximal Stimulation (Efficacy) Emax ± S.E.M.: dose-response curves; for Maximal Stimulation (Efficacy) Emax ± S.E.M.: basal = 100%; for Emax + S.E.M., Ligand: ligand alone, bar graphs Figure S3
Method: as §1, §2, §3, §4
[35S]GTPγS binding assay in rat brain membrane homogenates. Figure S2 represents the specific binding of [35S]GTPγS in percentage in presence of increasing concentrations (10-10 - 10^-5 M) of the indicated ligands. “Total” on the x-axis indicates the basal activity of the monitored G-protein, which is measured in the absence of the ligands and represents the total specific binding of [35S]GTPγS. The level of basal activity was defined as 100% and it is presented with a dotted line. Points represent means ± S.E.M. for at least three experiments […]
Figure S3. The effect of novel oligopeptides on G-protein activity in [35S]GTPγS binding assays in the absence or presence of the selective MOR antagonist cyprodime (Cyp) and the selective DOR antagonist naltrindole (NTI) in rat brain membrane homogenates (Figure A) and the selective KOR antagonist norbinaltorphine (nor-BNI) in guinea pig brain membrane homogenates (Figure B). The level of basal activity was defined as 100% and it is presented with a dotted line. Points represent means ± S.E.M. for at least three experiments performed

κ-opioid receptor = molecular target: T2, κ-opioid receptor (Cavia porcellus, UniProt P41144); assay: biochemical; assay type: binding; conditions: KOR; guinea pig brain membrane; from IC50 by Cheng–Prusoff; read-out: Ki + S.E.M., displacement of [3H]HS665
T2 construct: aliquots of frozen rat and guinea pig brain membrane homogenates were thawed and suspended in 50 mM Tris-HCl buffer; from tissue; host or cells: guinea pig brain membrane homogenate

[4] = parameters: method as in PMID 21598333; conditions: cited from earlier work
CD-1 male mice [5] = assay: tail flick test; assay type: in vivo; conditions: i.c.v., 10 μg/10 μL, 15 to 120 min
Method: (§5) In our experiments, we used CD-1 male mice (Harlan, Italy, 25–30 g) maintained in colony, housed in cages (7 mice per cage) under standard light/dark cycle (from 7:00 a.m. to 7:00 p.m.), temperature (21 ± 1 °C) and relative humidity (60% ± 10%) for at least 1 week. Food and water were available ad libitum. The Service for Biotechnology and Animal Welfare of the Istituto Superiore di Sanità and the Italian Ministry of Health authorized the experimental protocol according to Legislative Decree 26/14.
DMSO was purchased from Merck (Rome, Italy). Peptides solutions were freshly prepared using saline containing 0.9% NaCl and DMSO in the ratio DMSO/saline 1:5 v/v every experimental day. […]
The tail flick latency was obtained using a commercial unit (Ugo Basile, Gemonio, Italy), consisting of an infrared radiant light source (100 W, 15 V bulb) focused onto a photocell utilizing an aluminum parabolic mirror. […] Radiant heat was focused 3–4 cm from the tip of the tail, and the latency (s) of the tail withdrawal to the thermal stimulus was recorded. […] The baseline latency was calculated as mean of three readings recorded before testing at intervals of 15 min and the time course of latency determined at 15, 30, 45, 60, 90, and 120 min after treatment. […]
Experimental data were expressed as mean ± s.e.m. […]

CD-1 male mice [6] = assay: formalin test; assay type: in vivo; conditions: s.c. in hind paw, 100 μg/20 μL, 15 min before formalin
Method: as §5
DMSO was purchased from Merck (Rome, Italy). Peptides solutions were freshly prepared using saline containing 0.9% NaCl and DMSO in the ratio DMSO/saline 1:5 v/v every experimental day. These solutions were injected at a volume of 10 μL/mouse for intracerebroventricular (i.c.v.) administrations or at a volume of 20 μL/mouse for subcutaneous administrations.
In the formalin test, the injection of a dilute solution of formalin (1%, 20 μL/paw) into the dorsal surface of the mouse hind paw evoked biphasic nociceptive behavioral responses, such as licking, biting the injected paw, or both, occurring from 0 to 10 min after formalin injection (the early phase) and a prolonged phase, occurring from 15 to 40 min (the late phase). Before the test, mice were individually placed in a Plexiglas observation cage (30 × 14 × 12 cm) for one hour, to acclimatize to the testing environment. The total time the animal spent licking or biting its paw during the early and late phase of formalin-induced nociception was recorded.
Experimental data were expressed as mean ± s.e.m. In the tail flick test, significant differences among the groups were evaluated with two-way ANOVA followed by Sidak’s multiple comparisons test. Formalin test data were analyzed by using one-way ANOVA, followed by Holm–Sidak’s multiple comparisons test. […] Statistical significance was set at p < 0.05. The data and statistical analysis comply with the recommendations on experimental design and analysis in pharmacology.
Early phase represents the formalin-induced nociceptive behavior recorded from 0 to 10 min after formalin injection; late phase is for the formalin-induced nociceptive behavior recorded from 15 to 40 min after formalin injection. V is for vehicle-treated animals. Statistical analysis: one-way ANOVA followed by Holm–Sidak’s multiple comparisons test. ** is for p < 0.01 and *** is for p < 0.001 vs. V. n = 7.

NMDA receptor [7] = system: NMDA receptor; parameters: method as in earlier work; conditions: cited from earlier work
[8] = NMDA system, rat brain membrane, from IC50 by Cheng–Prusoff

T2 sequence (P41144 whole entry): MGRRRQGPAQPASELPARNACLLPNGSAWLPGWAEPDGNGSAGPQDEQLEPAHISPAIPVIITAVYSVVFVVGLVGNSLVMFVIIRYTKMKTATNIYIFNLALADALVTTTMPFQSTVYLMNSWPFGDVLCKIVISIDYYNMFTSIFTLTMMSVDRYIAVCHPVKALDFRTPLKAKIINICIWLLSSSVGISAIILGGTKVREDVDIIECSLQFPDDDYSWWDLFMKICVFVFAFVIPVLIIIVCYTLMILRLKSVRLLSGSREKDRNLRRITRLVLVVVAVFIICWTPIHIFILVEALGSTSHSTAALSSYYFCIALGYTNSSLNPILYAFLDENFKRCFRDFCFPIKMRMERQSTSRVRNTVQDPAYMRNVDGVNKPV
T1 sequence (P33533 whole entry): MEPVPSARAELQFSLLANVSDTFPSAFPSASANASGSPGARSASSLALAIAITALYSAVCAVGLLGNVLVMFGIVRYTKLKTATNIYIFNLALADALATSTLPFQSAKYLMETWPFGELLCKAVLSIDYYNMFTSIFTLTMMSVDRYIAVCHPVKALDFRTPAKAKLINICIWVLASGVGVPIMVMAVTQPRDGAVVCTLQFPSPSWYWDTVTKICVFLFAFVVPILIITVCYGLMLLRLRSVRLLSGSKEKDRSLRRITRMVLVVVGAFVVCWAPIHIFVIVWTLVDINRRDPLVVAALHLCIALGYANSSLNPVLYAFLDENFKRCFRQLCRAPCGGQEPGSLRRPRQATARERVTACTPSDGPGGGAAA

Nc1ccccc1C(=O)C[C@H](N)C(=O)O [L-kyn, L-kynurenine, reference compound]
Ki (NMDA receptor [1]; [8]): > 10 µM

CN(C)CCNC(=O)c1cc(=O)c2ccccc2[nH]1.Cl [KYNA1]
direct binding to μ, δ, κ-receptors in vitro (μ, δ, κ-receptors): did not directly bind

NC(=O)[C@H](CC(=O)c1ccccc1N)NC(=O)[C@H](Cc1ccccc1)NC(=O)[C@@H]1CCCN1C(=O)[C@@H](N)Cc1ccc(O)cc1 [Peptide K3] (H-YPF[Kyn]-NH2)
Emax + S.E.M., Ligand (G-protein [2]): 95.2 ± 2.2% | Ki (δ-opioid receptor): 0.159 ± 0.0016 µM | Ki (NMDA receptor [1]): > 10 µM | Potency Log EC50 ± S.E.M. (G-protein [3]): −6.993 ± 0.422 | Maximal Stimulation (Efficacy) Emax ± S.E.M. (G-protein [3]): 114.0 ± 2.1% | Emax + S.E.M., Ligand (G-protein [3]): 118.9 ± 3.0% | Ki (κ-opioid receptor): > 10 µM

COC(=O)[C@H](CC(=O)c1ccccc1N)NC(=O)[C@H](Cc1ccccc1)NC(=O)CNC(=O)[C@@H](C)NC(=O)[C@@H](N)Cc1ccc(O)cc1 [Peptide K4] (H-Y[dA]GF[Kyn]-OMe)
Emax + S.E.M., Ligand (G-protein [2]): 125.2 ± 2.0% | Ki (NMDA receptor [1]): > 10 µM | Potency Log EC50 ± S.E.M. (G-protein [3]): −6.073 ± 0.172 | Maximal Stimulation (Efficacy) Emax ± S.E.M. (G-protein [3]): 155.5 ± 4.8% | Emax + S.E.M., Ligand (G-protein [3]): 160.6 ± 5.7% | Ki (κ-opioid receptor): > 10 µM

FP-Kyn-L-NH2
concentration with opioid activity [4]: 10^−7 M

NC(=O)[C@H](Cc1ccccc1)NC(=O)[C@H](CC(=O)c1ccccc1N)NC(=O)[C@@H]1CCCN1C(=O)[C@@H](N)Cc1ccc(O)cc1 [Peptide K2]
Emax + S.E.M., Ligand (G-protein [2]): 92.8 ± 2.0% | Ki (δ-opioid receptor): > 10 µM | Ki (NMDA receptor [1]): > 10 µM | Potency Log EC50 ± S.E.M. (G-protein [3]): −7.535 ± 0.354 | Maximal Stimulation (Efficacy) Emax ± S.E.M. (G-protein [3]): 121.6 ± 2.5% | Emax + S.E.M., Ligand (G-protein [3]): 129.9 ± 8.2% | Ki (κ-opioid receptor): 1.043 ± 0.0003 µM

C[C@@H](NC(=O)[C@@H](N)Cc1ccc(O)cc1)C(=O)NCC(=O)N(C)[C@@H](Cc1ccccc1)C(=O)NCCO [DAMGO, Tyr-D-Ala-Gly-(NMe)Phe-Gly-ol, reference compound]
effect on time of response to thermal nociceptive stimuli (tail flick) (CD-1 male mice [5]): greatly increase the time of response to thermal nociceptive stimuli | formalin-induced nociceptive behavior, early phase (CD-1 male mice [6]; 0 to 10 min): reduction of the nociceptive behavior both early and late | formalin-induced nociceptive behavior, late phase (CD-1 male mice [6]; 15 to 40 min): reduction of the nociceptive behavior both early and late

C[C@@H](NC(=O)[C@@H](N)Cc1ccc(O)cc1)C(=O)NCC(=O)N[C@@H](Cc1ccccc1)C(=O)N[C@@H](CC(=O)c1ccccc1N)C(=O)O [Peptide K5] (H-Y[dA]GF[Kyn]-OH)
Ki (κ-opioid receptor): > 10 µM

O=C(O)c1cc(=O)c2ccccc2[nH]1 [KYNA, kynurenic acid]
affinity for NMDA receptor (NMDA receptor [7]): micromolar affinity | direct binding to μ, δ, κ-receptors in vitro (μ, δ, κ-receptors): did not directly bind | Ki (NMDA receptor [1]; [8]): > 10 µM
